This assay has as its target Induced myeloid leukemia cell differentiation protein Mcl-1 (Homo sapiens) (UniProt Q07820). Nature of the assay: Mcl-1/Bim interaction regulators – biochemical, bead-based flow cytometry, multiplexed, human, dose response (AID 1329). To be noted: Bim peptide-Mcl-1 binding, MCF.

SMILES strings stand for the structures. Activity calls are given as the source filed them. How the calls were made is not given here.

Chain of Induced myeloid leukemia cell differentiation protein Mcl-1 (Homo sapiens) (Q07820 whole entry, looked up): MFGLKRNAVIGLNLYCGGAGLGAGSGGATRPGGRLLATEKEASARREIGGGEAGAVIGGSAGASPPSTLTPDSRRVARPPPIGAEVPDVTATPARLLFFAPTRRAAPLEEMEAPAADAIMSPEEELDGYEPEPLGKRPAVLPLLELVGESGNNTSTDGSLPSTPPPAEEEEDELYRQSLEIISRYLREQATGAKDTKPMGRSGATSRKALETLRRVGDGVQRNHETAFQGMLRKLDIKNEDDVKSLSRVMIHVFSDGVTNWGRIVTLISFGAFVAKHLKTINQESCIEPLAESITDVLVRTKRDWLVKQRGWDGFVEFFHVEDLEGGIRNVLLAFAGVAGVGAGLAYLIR

On to `NC(=O)c1c(NC(=O)C2CCCO2)sc2c1CCCCC2` (configuration not stated), for which the percent span result is “inactive”.

For `Cc1ccc(-c2ccc(CCC(=O)O)n2NC(=O)c2cccs2)cc1`, the percent span entry was “inactive”.

In the case of `O=C(Nc1cccc(Cl)c1)Nc1ccc(Cl)cn1`, the percent span entry is “inactive”.

Turning to `CN(C(=O)NC1CCCCC1)c1ccccc1`, the percent span entry was “inactive”.

Consider `O=C(Cc1ccccc1)OCCNC(=O)c1cccnc1`, for which the percent span entry is “inactive”.

Turning to `CCOc1cccc(CNc2ccc(O)cc2)c1OCc1ccccc1Cl`, the percent span entry is “inactive”.

With `N/C(=N\N=C/c1ccc(Br)cc1)N/N=C\c1ccc(Br)cc1`, the percent span entry is “inactive”.

For the compound `CN1CCN(c2ccc(N)cc2)CC1`, the percent span result was “inactive”.

For the compound `COc1cccc(/C=C2/SC(=O)N(C)C2=O)c1OCc1ccc(C(=O)O)cc1`, the percent span entry is “inactive”.

As to `Cn1c(=O)c2cc(S(=O)(=O)Nc3cc(C(=O)O)cc(C(=O)O)c3)ccc2n(C)c1=O`, the percent span result was “inactive”.

For `Cc1cc(-c2nnc(CCC(=O)NC(C)c3cccc4ccccc34)o2)no1` (configuration not stated), the percent span entry is “inactive”.

For the compound `CN(Cc1ccccc1)c1nc2c(c(=O)[nH]c(=O)n2C)n1C`, the percent span entry was “inactive”.

Take `Cn1cccc1CC(=O)N/N=C\c1ccccc1`: the percent span result was “inactive”.

As to `Cc1cc(C)cc(-n2c(C)nc3cc(C(=O)O)ccc32)c1`, the percent span result is “inactive”.

As to `CN=c1scc(-c2cccs2)n1/N=C/c1ccc(O)c(O)c1O`, the percent span entry was “inactive”.

As for `Cc1ccccc1-n1nc(SCC(=O)O)sc1=S`, the percent span entry was “inactive”.

As to `Cc1ccc(CNc2ccc3c(c2)OCO3)c(C)c1`, the percent span result was “inactive”.

For the compound `O=C1c2ccccc2C(=O)c2cc(S(=O)(=O)Nc3ccccc3)ccc21`, the percent span entry is “inactive”.

In the case of `COc1ccc(NC(=O)c2cc(-c3ccc(C)o3)nc3ccccc23)cc1OC`, the percent span result is “inactive”.

Turning to `O=C(COc1ccccc1)Nc1ccc2c(c1)Cc1cc(NC(=O)COc3ccccc3)ccc1-2`, the percent span result was “inactive”.

Turning to `Nc1ccc(-c2cn3cccnc3n2)cc1`, the percent span result is “inactive”.

Consider `CC(C)CN1C(=O)/C(=C/c2ccco2)NC1=S`, for which the percent span entry was “inactive”.

For the compound `CCOC(=O)CSC1=NC(=O)/C(=C\c2ccc(OC(C)=O)cc2)S1`, the percent span entry is “inactive”.

Consider `O=C(/C=C/c1ccc(-c2ccccc2[N+](=O)[O-])o1)c1ccc(F)cc1`, for which the percent span result was “inactive”.

Regarding `Cc1ccc(Nc2nc(-c3ccccc3)c(CC(=O)O)s2)cc1`, the percent span result is “inactive”.

With `Cc1ccc(S(=O)(=O)N2CCCCC2)cc1NC(=O)COC(=O)c1ccccc1F`, the percent span entry was “inactive”.

`CCc1ccc(NC(=O)CC2NCCNC2=O)cc1` (configuration not stated): the percent span entry is “inactive”.

As for `O=C1NC(=O)C2(Cc3c(nc4ccccn4c3=O)N3CCCCCC32)C(=O)N1Cc1ccccc1` (configuration not stated), the percent span entry is “inactive”.

Consider `COc1ccc(-c2csc(NC(=O)/C(N=Nc3ccccc3)=C(\C)O)n2)cc1`, for which the percent span entry is “inactive”.

Take `O=C(CSc1nnc(-c2ccccc2)c(-c2ccccc2)n1)N1CCc2ccccc21`: the percent span entry is “inactive”.

Take `Cc1ccc(C(=O)C(C(=O)/C=C/c2ccccc2)=C2SCCCS2)cc1`: the percent span entry was “inactive”.

For the compound `Cn1c(=O)[nH]c(=O)c2c1nc(N1CCOCC1)n2CCSc1nc2ccccc2[nH]1`, the percent span entry is “inactive”.

Turning to `COc1cc(/C=C2\S/C(=N/S(=O)(=O)c3ccccc3)NC2=O)c([N+](=O)[O-])cc1OC`, the percent span result was “inactive”.

In the case of `COc1ccc(NC(=O)Cc2c(F)cccc2Cl)c(OC)c1`, the percent span result is “inactive”.

Regarding `COC(=O)c1cc(OC)c(OC)cc1NC(=O)Nc1cccc(C(C)=O)c1`, the percent span result was “inactive”.

Regarding `O=C(COc1ccccc1)N1CCN(c2ncnc3c2cnn3-c2ccccc2)CC1`, the percent span result is “inactive”.

In the case of `CCOc1ccc(C(=O)Nc2nnc(NC(=S)Nc3ccccc3)s2)cc1`, the percent span entry was “inactive”.

With `COc1ccc(C)cc1Nc1ccc(C(=O)O)cc1[N+](=O)[O-]`, the percent span entry was “inactive”.

As to `CCN(CC)CCN(C(=O)c1ccc(N2C(=O)CCC2=O)cc1)c1nc2cc3c(cc2s1)OCCO3`, the percent span entry is “inactive”.

In the case of `BrC(=C\c1ccccc1)/C=N/N1CCN(c2ccccc2)CC1`, the percent span entry was “inactive”.

Regarding `Fc1ccc(C2=Nn3c(Cc4ccccc4F)nnc3SC2)cc1`, the percent span result is “inactive”.

`COc1ccc(CN(CC(=O)NC2CCCC2)C(=O)CCC(=O)Nc2cc(C)on2)cc1`: the percent span entry was “inactive”.

Take `CN(C)S(=O)(=O)N(CC(=O)Nc1ccccc1C(F)(F)F)c1ccccc1`: the percent span result is “inactive”.

On to `O=C(Nc1nnc(COc2ccc(Cl)cc2)s1)c1ccco1`, for which the percent span result is “inactive”.

On to `COc1cc(N=c2ssnc2Cl)cc(OC)c1`, for which the percent span result was “inactive”.

As to `C/C(=N\NC(=O)Cc1cccn1C)c1ccc2ccccc2c1`, the percent span entry was “inactive”.

`CNCc1ccccc1Sc1ccc(O)c(O)c1`: the percent span result is “inactive”.

As for `C=CCn1c(C)c(C(C)=O)c(N2CCOCC2)nc1=S`, the percent span entry was “inactive”.

Take `CCOc1ncccc1C(=O)OC(C)C(=O)Nc1ccc(CC)cc1` (configuration not stated): the percent span entry is “inactive”.

`CCN(CC)c1ccc(NC(=O)COc2ccccc2C#N)cc1S(=O)(=O)Nc1ccccc1OC`: the percent span entry was “inactive”.

As to `Cc1ccc(Nc2nc(-c3c(C)nc4ncccn34)cs2)cc1`, the percent span result was “inactive”.

Consider `Clc1ccc2c(N/N=C/c3ccccc3Br)ccnc2c1`, for which the percent span result is “inactive”.

`O=S1(=O)N=C(N(CCO)/N=C/c2ccccc2)c2ccccc21`: the percent span entry is “inactive”.

As to `O=C(CSc1nnc(-c2ccco2)n1Cc1ccccc1)c1ccccc1`, the percent span entry is “inactive”.

In the case of `CCOC(=O)C1(Cc2cccc(OC)c2)CCN(Cc2cccc(OC)c2OC)CC1`, the percent span result was “inactive”.

On to `CCCCOc1ccc(Cc2c(Cl)nc(SC)nc2N2CCOCC2)cc1`, for which the percent span entry is “inactive”.

Take `COc1ccc(C(=O)NC(=S)N2CCNC(=O)C2)cc1Br`: the percent span result is “inactive”.

In the case of `Cc1cccc(C(=O)N=c2c(C#N)cc3c(=O)n4cccc(C)c4nc3n2Cc2ccco2)c1`, the percent span entry was “inactive”.

As to `CCn1c(SCC(=O)Nc2ccc(C)cc2)nnc1-c1ccc(O)cc1`, the percent span result is “inactive”.

On to `COc1ccc(N2CCN(C(=O)c3cc(=O)[nH]c4ccccc34)CC2)cc1`, for which the percent span entry was “inactive”.

As to `C/C(=C\c1ccco1)C1Nc2cccc3cccc(c23)N1`, the percent span result was “inactive”.

On to `COC(=O)c1c(NC(=O)COc2ncnc3ccccc23)sc(C)c1C`, for which the percent span result was “inactive”.

For `COc1cc(/C=C2\S/C(=N/S(=O)(=O)c3ccc(C)cc3)NC2=O)c([N+](=O)[O-])cc1OC`, the percent span result is “inactive”.

On to `c1csc(C2=Nn3c(nnc3-c3ccncc3)SC2)c1`, for which the percent span entry was “inactive”.

Turning to `O=C(c1cc(=O)c2ccccc2o1)N1CCN(c2ccccc2F)CC1`, the percent span result was “inactive”.

On to `C=CCSc1nc(N)c2c(C)c(C)sc2n1`, for which the percent span entry was “inactive”.

As for `CNc1ccc(Br)cc(C(=O)/C=C/c2cccc(OC)c2OC)c1=O`, the percent span result was “inactive”.

With `O=C1/C(=C\c2ccco2)NC(=S)N1c1ccccc1`, the percent span entry was “inactive”.

For the compound `Brc1ccc2ncnc(Nc3ccc(N4CCOCC4)cc3)c2c1`, the percent span result was “inactive”.

For `CCN1C(=O)/C(=C\C=C2/C=CC=CN2CC)SC1=S`, the percent span entry is “inactive”.

`CCOC(=O)C1=C(Cc2ccc(OC)cc2)C(=O)c2ccccc2C1=O`: the percent span entry was “inactive”.

In the case of `Cc1ccc(N=Cc2c(O)n(-c3ccc4c(c3)OCO4)c(=O)c3ccccc23)cc1`, the percent span result is “inactive”.

`CNc1nc2ccccc2n1/N=C/c1cccc(OC)c1OC`: the percent span entry was “inactive”.

`CS(=O)(=O)NN1C(=O)c2ccccc2NC1c1cccc2cccnc12` (configuration not stated): the percent span result was “inactive”.

With `COc1ccc(CC(=O)Nc2ccc3nc(C)sc3c2)cc1OC`, the percent span entry was “inactive”.

For the compound `O=[N+]([O-])c1ccc2[nH]nc(-c3ccccc3)c2c1`, the percent span entry was “inactive”.

Take `COc1ccc(COC(=O)NNC(=O)c2ccccc2Cl)cc1`: the percent span entry is “inactive”.

Regarding `O=C(CSc1nc2ccsc2c(=O)n1Cc1ccc(C(=O)O)cc1)NCC1CCCO1` (configuration not stated), the percent span result is “inactive”.

With `O=C(NNC(=O)C12CC3CC(CC(C3)C1)C2)c1ccco1`, the percent span result was “inactive”.

For `COC(=O)c1c(C(=O)OC)c2cccc3cc(-c4ccccc4)c4ccc1c4n32`, the percent span entry was “inactive”.

In the case of `COc1ccc(-n2c(NC(=O)c3ccco3)c(C#N)c3nc4ccccc4nc32)cc1`, the percent span entry is “inactive”.

As for `Clc1ccc(N=c2ssnc2Cl)nc1`, the percent span result was “inactive”.

For `O=C(NCCc1ccccc1)c1ccc2nc(-c3ccco3)c(-c3ccco3)nc2c1`, the percent span entry is “inactive”.

`O=S1(=O)N=C(N(CCO)/N=C/c2ccncc2)c2ccccc21`: the percent span entry is “inactive”.

As to `Cc1cc(C)c2c(N)c3cccc(C)c3nc2n1`, the percent span entry is “inactive”.

Turning to `COc1ccccc1OCc1ccc(C(=O)Nc2ccccc2F)cc1`, the percent span entry was “inactive”.

For the compound `COc1ccc(CC(=O)Nc2ccccc2Oc2ccccc2)cc1`, the percent span entry is “inactive”.

Regarding `Cc1ccc(-c2cc(-c3ccc(F)cc3)nc(N)c2C#N)o1`, the percent span result was “inactive”.

With `CC1(C)SC(=S)N(NC(=O)Nc2ccccc2)C1N(O)C(=O)Nc1cccc2ccccc12` (configuration not stated), the percent span result is “inactive”.

In the case of `CCN(CC)c1ccc(NC(=O)c2ccccc2Br)cc1S(=O)(=O)Nc1ccccc1OC`, the percent span result was “inactive”.

On to `CCOc1cc(CNc2ccc(N3CCCCC3)cc2)cc(Br)c1OCC(=O)NC(C)(C)C`, for which the percent span result is “inactive”.

For `Cc1[nH]n(C(N)=S)c(=O)c1N=Nc1ccc(S(=O)(=O)N2CCCCCC2)cc1`, the percent span entry was “inactive”.

The record behind these values is PubChem BioAssay AID1329 (NMMLSC, 2008).
